Assay results from patent publication US12390467B2, “Necroptosis inducers or autophagy inhibitors or a combination thereof” (The University of Toledo, priority 2018, dated 2025).

Key:
Type in all cases: cell-based
[1] = tested on: RIP, p-RIP, MLKL, caspase 8 in MDA-MB468 cells; assay: Western blot, necroptotic proteins, MDA-MB468
Protocol: The TNBC cells were seeded in a culture flask and incubated for 24 h. The cells were then incubated with different concentrations of the lead compounds and re-incubated for an additional 12 or 24 h. […] The bicinchoninic acid (BCA) was used to determine protein concentration in the cell extracts (G-BIOSCIENCES, St. Louis, MO, USA). […] The membrane was blocked using 5% milk in Tris-buffered Tween 20 saline for 30 minutes. The membrane was then incubated overnight with primary antibodies against Bak, Bax, Bcl-2, caspase9, caspase 3, caspase 7, PARP, cytochrome c, N-cadherin, E-cadherin, c-Myc, dishevelled segment polarity protein 3 (DVL3), dishevelled segment polarity protein 2 (DVL2), Vimentin, mitogen-activated protein kinase kinase (MAPKK also known as MEK1/2), β-catenin, low-density lipoprotein receptor-related protein 6 (LRP6), receptor-interacting protein kinase (RIP), phosphorylated RIP (p-RIP), mixed lineage kinase domain like pseudokinase(MLKL), Caspase 8, light chain 3 (LC3), lysosomal-associated membrane protein 1 (LAMP1), unc-51 like autophagy activating kinase 1 (ULK1), ras associated protein 7 (Rab7), ras associated protein 5 (Rab5), Beclin 1, mechanistic target of rapamycin (mTOR), tumor necrosis factor alpha (TNF-α), tumor necrosis factor receptor 1 (TNFR1), tumor necrosis factor receptor 2 (TNFR2), Fas-associated protein with death domain (FADD), Fas ligand (Fas), TNF-related apoptosis-inducing ligand (TRAIL), death receptor 5 (DR5), Tumor necrosis factor receptor type 1-associated DEATH domain (TRADD), receptor-interacting protein kinase 3 (RIP3), β-actin or GAPDH in 1:1000 dilution in 5% milk or 5% BSA at 4° C. Horseradish peroxidase-labeled (HRP) anti-rabbit or anti-mouse secondary antibodies (1:5,000 dilution) were added and incubated the next day for an additional 1 h. A ChemiDoc™ MP System imaging system from Bio-Rad (Hercules, CA, USA) was used for blots reading. Blots were used to obtain the protein bands, followed by quantification of the bands using image J software (NIH, Bethesda, MD, USA). All of the data were expressed as the ratio of β-actin or GAPDH.

[2] = tested on: S1M180 and H460-MX20 ABCG2-overexpressing cells vs parental S1 and H460; assay: Collateral sensitivity in ABCG2-overexpressing versus parental cells; settings: 0.3, 3, and 30 μM
From the text: The data is shown as means±SEM of three independent experiments.

[3] = tested on: RAW264.7 macrophage cells; assay: Optically activated migration of RAW264.7 cells; settings: 10 μM
Protocol: FIGS. 13A-13B: The in vitro effect of TPH104 on the migratory and invasive properties of MDA-MB231 TNBC cells using the wound healing assay. […] Control cells were incubated with 11-cis retinal (50 μM) for 5 minutes in the dark. A confined optical input of 445 nm was placed in-front of cells using a user-defined region of interest (ROI) and optically activated (OA) continuously in the direction of cell migration pathway for 20 minutes (OA=blue box). Cells were incubated with 10 μM of TPH104 for 30 minutes, followed by incubation with 11-cis retinal (50 μM) for 5 minutes in the dark. Scale=5 μm.
To further confirm the anti-migratory effect of TPH104, RAW264.7 macrophage cells were incubated with 10 μM TPH104 and its effect on Gai-coupled-GPCR activation was determined.

[4] = tested on: ABCG2 transporter in H460/MX20, S1M180 and HEK293/R2 cells; assay: Western blot, ABCG2 transporter expression; settings: concentration dependent
From the text: FIG. 25: TPH104 reverses multidrug resistance by downregulating the expression of ABCG2 transporter in a concentration dependent fashion in drug resistant small cell lung cancer cells (H460/MX20), colon cancer cells (S1M180) and ABCG2-transfected cells (HEK293/R2). The bar graph represents the quantified values of the ratio of ABCG2/β-actin. The data represent mean±SEM of three independent western blots. *p<0.05, **p<0.01 compared to control.

[5] = tested on: lung (H460), ovarian (OV2008), prostate (DU145), and colon (HCT-116, LOVO, S1); assay: MTT cytotoxicity screening, other cancer types; settings: H460, OV2008, DU145, HCT-116, LOVO, less potently than in TNBC
Protocol: The following cancer and non-cancer cell lines were used in the initial cytotoxicity screening of the TPH104 compounds: triple negative breast cancer (TNBC): MDA-MB468, MDA-MB 231, and BT-20; non-TNBC: MCF-7 and ZR-75-1; ovarian: Ov2008; prostate: DU145; colon: HCT-116, S1, and LOVO; lung: H460; normal kidney: HEK-293; normal breast: HMEC; and normal colon: CRL-1459. All cells were cultured in Dulbecco's modified Eagle medium (DMEM), supplemented with 10% fetal bovine serum (FBS), and 1% penicillin/streptomycin (P/S). Cells were allowed to grow as adherent monolayers in T25 flasks in a humidified incubator with 5% CO2 at 37° C. for a period of 24 h, unless otherwise specified for certain experiments.
The MTT assay was used to determine the cytotoxicity of all of the compounds. […] Subsequently, the plate was shaken for 2 minutes and the absorbance was measured at a wavelength of 570 nm using a SpectraMax iD3 Multi-Mode Microplate Reader (Molecular Devices, Sunnyvale, CA). The IC50 values of each compound were calculated and used to determine the selectivity ratio (IC50 in normal cells/IC50 in cancer cells) of each compound as previously described. […]
Table 3 (FIG. 30)-Cytotoxicity screening of TPH104 compounds against Colon (HCT-116, LOVO and S1), Prostate (DU145), Ovarian (Ov 2008), and Lung (H460) cancer cell lines. Cell survival was determined using MTT assay as described. […]

COc1ccc(O)c(/C=N/Nc2ncnc3scc(-c4ccc(C)cc4)c23)c1 [TPH104]
expression of caspase 8 ([1]; 0.5, 1, 2, and 5 μM): significantly decreased
expression levels of MLKL ([1]; 1, 2, and 5 μM): significantly increased
expression of p-RIP ([1]; 1, 2, and 5 μM): significantly increased
expression of RIP1 ([1]; 1, 2, or 5 μM for 12 h): significantly increased
ABCG2 transporter mediated multidrug resistance, collateral sensitivity [2]: collateral sensitivity
migration of RAW264.7 cells [3]: significantly decreased
expression of ABCG2 transporter [4]: downregulated
proliferation of other types of cancer [5]: significantly inhibited
